EP4772507A1, “AZAINDOLE COMPOUND AND MEDICAL DRUG” (Nippon Shinyaku Co., Ltd., priority 2023, dated 2025)

What was measured:
SU-DHL-4 cell lines = assay: Proliferation inhibition test, GCB-DLBCL cell line SU-DHL-4 (negative control line); assay type: cell-based; details: Homo sapiens; SU-DHL-4 (GCB-DLBCL, NF-κB pathway-independent, negative control); 96 hours; Cell Counting Kit-8; read-out: Proliferation inhibitory activity against SU-DHL-4 IC50
Protocol: (§1) In ABC-DLBCL cell lines, the NF-κB pathway is constitutively activated due to mutations in the B-cell receptor pathway. To evaluate the proliferation inhibitory activity associated with the MALT1 inhibitory activity of the test substance, a proliferation inhibition test was conducted using ABC-DLBCL cell lines.
(§2) The test substance was prepared at a concentration of 10 mM in dimethyl sulfoxide (DMSO) and further diluted with DMSO to each of concentrations of 3,000, 1,000, 300, 100, 30, and 10 µM. The solutions were further diluted 100-fold with IMDM medium containing 10% FBS to prepare test substance solutions.
(§3) OCI-Ly3 cell lines (ABC-DLBCL, NF-κB pathway-dependent) were cultured in IMDM containing 10% FBS, and SU-DHL-4 cell lines (GCB-DLBCL, NF-κB pathway-independent, used as a negative control) were cultured in RPMI-1640 containing 10% FBS. Into a 96-well plate, 2,000 cells of the OCI-Ly3 cell line and 4,000 cells of the SU-DHL-4 cell line were seeded in 100 µL per well, and 11 µL of the adjusted test substance solution was added thereto (final concentrations: 10,000, 3,000, 1,000, 300, 100, 30, and 10 nM). After 96 hours of incubation at 37°C in a 5% CO2 incubator, 10 µL of Cell Counting Kit-8 (Dojindo Laboratories) was added to each well. After 4 hours of incubation at 37°C, absorbance at 450 nm was detected using a microplate reader (EnVision, PerkinElmer).
(§4) Using the measurement data, non-linear regression analysis based on a 2-parameter logistic model was performed with Spotfire (PerkinElmer) to estimate IC50 values.

OCI-Ly3 cell lines = assay: Proliferation inhibition test, ABC-DLBCL cell line OCI-Ly3; assay type: cell-based; details: Homo sapiens; OCI-Ly3 (ABC-DLBCL, NF-κB pathway-dependent); 96 hours; Cell Counting Kit-8; read-out: Proliferation inhibitory activity against OCI-Ly3 IC50
Protocol: as §1, §2, §3, §4

[1] = target: T1, C-terminal catalytic domain of MALT1 (amino acid residues 329-824) (Homo sapiens, UniProt Q9UDY8); assay: MALT1 protease inhibitory activity (enzyme activity inhibition assay, fluorogenic substrate); assay type: biochemical; details: substrate Ac-Leu-Arg-Ser-Arg-AMC 50 µM; 30°C for 2 hours; fluorescence
T1 construct: C-terminal catalytic domain of MALT1 (amino acid residues 329-824)
T1 sequence (Q9UDY8 329-824): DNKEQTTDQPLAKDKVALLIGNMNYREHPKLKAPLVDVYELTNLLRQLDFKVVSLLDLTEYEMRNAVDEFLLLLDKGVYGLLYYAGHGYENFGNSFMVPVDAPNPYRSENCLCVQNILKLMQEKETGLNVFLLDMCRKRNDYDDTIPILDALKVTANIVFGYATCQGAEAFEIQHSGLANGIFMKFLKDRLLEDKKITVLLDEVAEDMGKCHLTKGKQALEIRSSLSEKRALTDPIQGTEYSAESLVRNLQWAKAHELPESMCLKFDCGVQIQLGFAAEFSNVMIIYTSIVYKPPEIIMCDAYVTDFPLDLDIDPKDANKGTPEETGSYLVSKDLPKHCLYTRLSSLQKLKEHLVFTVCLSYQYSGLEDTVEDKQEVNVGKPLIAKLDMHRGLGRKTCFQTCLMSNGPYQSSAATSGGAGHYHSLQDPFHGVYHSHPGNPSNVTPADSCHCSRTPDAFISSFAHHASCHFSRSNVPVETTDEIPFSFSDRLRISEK
Protocol: To evaluate the enzyme inhibitory activity of a test substance against MALT1, an enzyme activity inhibition assay was conducted using the C-terminal catalytic domain of MALT1 (amino acid residues 329-824).
A test substance was prepared at a concentration of 10 mM in dimethyl sulfoxide (DMSO) and further diluted with DMSO to obtain final concentrations of 1000, 100, 10, 1, and 0.1 µM. The solutions were further diluted 25-fold with an assay buffer to prepare final test substance solutions. The composition of the assay buffer was 200 mM Tris/HCl HEPES (pH 7.5), 0.8 M Na citrate, 100 µM DTT, and 0.05% CHAPS.
The test substance solution was added to a 384-well black plate (#6007270, PerkinElmer) in an amount of 5 µL per well (n = 2; final concentrations of 10000, 1000, 100, 10, 1, and 0.1 nM), followed by the addition of 10 µL of MALT1 enzyme and finally 5 µL of a substrate solution (Ac-Leu-Arg-Ser-Arg-AMC, Peptide Institute, Inc.; final concentration in the reaction mixture: 50 µM), and after stirring, the mixture was allowed to react at 30°C for 2 hours. Fluorescence (excitation: 380 nm, emission: 460 nm) was detected using a microplate reader (EnVision, PerkinElmer).
Using the measurement data, non-linear regression analysis based on a 2-parameter logistic model was performed with Spotfire (PerkinElmer) to calculate IC50.

[2] = tested on: HEK293/API2-MALT1/NF-κB reporter cells; assay: Inhibition of reporter activity in HEK293/API2-MALT1/NF-κB reporter cells; assay type: cell-based; details: Homo sapiens, 24 hours with test substance, One-glo luminescence
Protocol: The API2-MALT1 fusion protein, expressed in MALT lymphoma, is known to constitutively activate the NF-κB pathway. To evaluate the inhibitory effect of the test substance on the NF-κB pathway in cells, a reporter activity inhibition test was conducted using HEK293/API2-MALT1/NF-κB reporter cells.
The test substance was prepared at a concentration of 10 mM in dimethyl sulfoxide (DMSO) and further diluted with DMSO to each of concentrations of 1000, 300, 100, and 10 µM. The solutions were further diluted 100-fold with DMEM medium containing 10% FBS to prepare test substance solutions.
HEK293/API2-MALT1/NF-κB reporter cells and 293T/CMV reporter cells (used as a negative control) were cultured in DMEM medium containing 10% FBS. Into a 384-well plate (#781080, Greiner), 6,000 cells were seeded in 30 µL per well, and after culturing for 24 hours, 3.3 µL of the adjusted test substance solution was added thereto (final concentrations: 10,000, 1,000, 100, and 10 nM). After culturing for 24 hours at 37°C in a 5% CO2 incubator, 33 µL of One-glo (Promega) was added to each well. After a 5-minute incubation at room temperature, luminescence was detected using a microplate reader (EnVision, PerkinElmer).
Using the measurement data, non-linear regression analysis was performed with the SAS system (SAS Institute Inc.) to estimate IC50.

IC50 (SU-DHL-4 cell lines) [nM] | IC50 (OCI-Ly3 cell lines) [nM] | IC50 [1] [nM] | Compound | IC50 [2] [nM]
9500 | 870 | 19 | O=C(c1cnn(-c2cccc3c(F)cccc23)c1C(F)(F)F)c1c[nH]c2nc(-n3nccn3)c(Cl)cc12 [Example 23, [5-chloro-6-(2H-1,2,3-triazol-2-yl)-1H-pyrrolo[2,3-b]pyridin-3-yl][1-(5-fluoronaphthalen-1-yl)-5-(trifluoromethyl)-1H-pyrazol-4-yl]methanone] | 190
6400 | 480 | 110 | C[C@@H]1CC(C(=O)c2cn(C3CCOCC3)c3nc(-n4nccn4)c(Cl)cc23)C[C@@H](C)N1c1ncc(F)cc1I (stereo partly drawn) [Example 20, [5-chloro-1-(oxan-4-yl)-6-(2H-1,2,3-triazol-2-yl)-1H-pyrrolo[2,3-b]pyridin-3-yl][(2R,6R)-1-(5-fluoro-3-iodopyridin-2-yl)-2,6-dimethylpiperidin-4-yl]methanone] | 240
> 10000 | 790 | 10 | C[C@@H]1C[C@H](C(=O)c2cn(C)c3nc(-n4nccn4)c(Cl)cc23)CCN1c1ncncc1Br (racemic) [Example 33, [(2RS,4RS)-1-(5-bromopyrimidin-4-yl)-2-methylpiperidin-4-yl][5-chloro-1-methyl-6-(2H-1,2,3-triazol-2-yl)-1H-pyrrolo[2,3-b]pyridin-3-yl]methanone] | 640
8900 | 530 | 70 | C[C@@H]1CC(C(=O)c2cn([C@@H]3CCOC3)c3nc(-n4nccn4)c(Cl)cc23)C[C@@H](C)N1c1ncc(F)cc1I (stereo partly drawn) [Example 22, {5-chloro-1-[(3R)-oxolan-3-yl]-6-(2H-1,2,3-triazol-2-yl)-1H-pyrrolo[2,3-b]pyridin-3-yl}[(2R,6R)-1-(5-fluoro-3-iodopyridin-2-yl)-2,6-dimethylpiperidin-4-yl]methanone] | 280
> 10000 | 870 | 44 | O=C(c1cnn(-c2cccc3c(=O)[nH]ccc23)c1C(F)(F)F)c1cn(C2CCC2)c2nc(-n3nccn3)c(Cl)cc12 [Example 30, 5-{4-[5-chloro-1-cyclobutyl-6-(2H-1,2,3-triazol-2-yl)-1H-pyrrolo[2,3-b]pyridine-3-carbonyl]-5-(trifluoromethyl)-1H-pyrazol-1-yl}isoquinolin-1(2H)-one] | 500
> 10000 | 520 | 13 | C[C@@H]1C[C@H](C(=O)c2cn(C)c3nc(-n4nccn4)c(Cl)cc23)CCN1c1ccc(F)cc1N (racemic) [Example 34, [(2RS,4RS)-1-(2-amino-4-fluorophenyl)-2-methylpiperidin-4-yl][5-chloro-1-methyl-6-(2H-1,2,3-triazol-2-yl)-1H-pyrrolo[2,3-b]pyridin-3-yl]methanone] | 200
> 10000 | 140 | 54 | COc1nc2c(cc1Cl)c(C(=O)c1cnn(-c3cncc4c(F)cccc34)c1C(F)(F)F)cn2C [Example 32, (5-chloro-6-methoxy-1-methyl-1H-pyrrolo[2,3-b]pyridin-3-yl)[1-(8-fluoroisoquinolin-4-yl)-5-(trifluoromethyl)-1H-pyrazol-4-yl]methanone] | 280
9000 | 440 | 19 | O=C(c1cnn(-c2cncc3sccc23)c1C(F)(F)F)c1cn(C2COC2)c2nc(-n3nccn3)c(Cl)cc12 [Example 25, [5-chloro-1-(oxetan-3-yl)-6-(2H-1,2,3-triazol-2-yl)-1H-pyrrolo[2,3-b]pyridin-3-yl][1-(thieno[2,3-c]pyridin-4-yl)-5-(trifluoromethyl)-1H-pyrazol-4-yl]methanone] | 180
2500 | 240 | 92 | C[C@@H]1CC(C(=O)c2cn(C3CCS(=O)(=O)CC3)c3nc(-n4nccn4)c(Cl)cc23)C[C@@H](C)N1c1ncc(F)cc1I (stereo partly drawn) [Example 19, [5-chloro-1-(1,1-dioxotetrahydro-2H-thiopyran-4-yl)-6-(2H-1,2,3-triazol-2-yl)-1H-pyrrolo[2,3-b]pyridin-3-yl][(2R,6R)-1-(5-fluoro-3-iodopyridin-2-yl)-2,6-dimethylpiperidin-4-yl]methanone] | 130
2500 | 410 | 20 | C[C@@H]1C[C@H](C(=O)c2cn(C)c3nc(S(=O)(=O)N4CCNCC4)c(Cl)cc23)CCN1c1ncc(F)cc1Cl (racemic) [Example 36, [(2RS,4RS)-1-(3-chloro-5-fluoropyridin-2-yl)-2-methylpiperidin-4-yl][5-chloro-1-methyl-6-(piperazin-1-ylsulfonyl)-1H-pyrrolo[2,3-b]pyridin-3-yl]methanone] | 280
7200 | 450 |  | C[C@@H]1CC(C(=O)c2cn(CCO)c3nc(-n4nccn4)c(Cl)cc23)C[C@@H](C)N1c1ncc(F)cc1I (stereo partly drawn) [Example 4, [5-chloro-1-(2-hydroxyethyl)-6-(2H-1,2,3-triazol-2-yl)-1H-pyrrolo[2,3-b]pyridin-3-yl][(2R,6R)-1-(5-fluoro-3-iodopyridin-2-yl)-2,6-dimethylpiperidin-4-yl]methanone] | 230

Compound | IC50 (SU-DHL-4 cell lines) [nM] | IC50 (OCI-Ly3 cell lines) [nM] | IC50 [1] [nM] | IC50 [2] [nM]
C[C@@H]1CC(C(=O)c2cn(CCCO)c3nc(-n4nccn4)c(Cl)cc23)C[C@@H](C)N1c1ncc(F)cc1I (stereo partly drawn) [Example 15, [5-chloro-1-(3-hydroxypropyl)-6-(2H-1,2,3-triazol-2-yl)-1H-pyrrolo[2,3-b]pyridin-3-yl][(2R,6R)-1-(5-fluoro-3-iodopyridin-2-yl)-2,6-dimethylpiperidin-4-yl]methanone] | 8400 | 720 |  | 170
